Compared with `CN(C)C(=O)Cc1nn(-c2cccnc2)c(=O)c2c1c1ccc(Cl)cc1n2C` [Compound 5, 7-chloro-N,N,5-trimethyl-4-oxo-3-(pyridin-3-yl)-3,5-dihydro-4H-pyridazino[4,5-b]indole-1-acetamide], `CN(C)C(=O)Cc1nn(-c2cccnc2)c(=O)c2c1c1ccc(Cl)cc1n2C.Cl` is lower in melting point: 255 to 256 °C for the first, 250 to 252 °C for the second.

First: CN(C)C(=O)Cc1nn(-c2ccncc2)c(=O)c2c1c1ccc(F)cc1n2C.Cl
Second: CN(C)C(=O)Cc1nn(-c2ccncc2)c(=O)c2c1c1ccc(Cl)cc1n2C.Cl
The melting point of the first is lower: 267 to 270 °C for the first, 275 to 279 °C for the second.

First: Cc1ccc(-n2nc(CC(=O)N(C)C)c3c4ccc(Cl)cc4n(C)c3c2=O)cn1 [Compound 8, 7-chloro-N,N,5-trimethyl-4-oxo-3-(6-methylpyridin-3-yl)-3,5-dihydro-4H-pyridazino[4,5-b]indole-1-acetamide]
Second: CN(C)C(=O)Cc1nn(-c2ccccn2)c(=O)c2c1c1ccc(Cl)cc1n2C [Compound 4, 7-chloro-N,N,5-trimethyl-4-oxo-3-(pyridin-2-yl)-3,5-dihydro-4H-pyridazino[4,5-b]indole-1-acetamide]
The melting point of the first is higher: 253 to 255 °C for the first, 183 to 184 °C for the second.

First: CN(C)C(=O)Cc1nn(-c2ccccn2)c(=O)c2c1c1ccc(F)cc1n2C [Compound 1, 7-fluoro-N,N,5-trimethyl-4-oxo-3-(pyridin-2-yl)-3,5-dihydro-4H-pyridazino[4,5-b]indole-1-acetamide]
Second: CN(C)C(=O)Cc1nn(-c2cccnc2)c(=O)c2c1c1ccc(F)cc1n2C.Cl
The melting point of the first is lower: 222 to 223 °C for the first, 244 to 250 °C for the second.

`CCN(CC)C(=O)Cc1nn(-c2cccnc2)c(=O)c2c1c1ccc(Cl)cc1n2C` [Compound 9, 7-chloro-N,N-diethyl-5-methyl-4-oxo-3-(pyridin-3-yl)-3,5-dihydro-4H-pyridazino[4,5-b]indole-1-acetamide] gave a melting point of 199 to 200 °C.
